Test results: ChEMBL document CHEMBL1134457, “Medicinal chemistry of neuronal voltage-gated sodium channel blockers” (J Med Chem, 2001)

Key:
[1] = Inhibition of [3H]BTX binding to cardiac voltage-gated sodium channel; design: species or system Rattus norvegicus
[2] = Inhibition of veratridine-induced guanidine flux in cardiac voltage-gated sodium channel (veratridine block vs. Na release); format: functional, tissue-based, Rattus norvegicus, Heart
[3] = Potency against voltage-gated calcium channel [45[Ca2+]]; format: functional
Rattus norvegicus [4] = experiment: In vivo anticonvulsant activity to prevent seizures from maximum electroshock (MES) […]; format: functional
[5] = In vivo toxic dose in rotarod assay; format: ADME, organism-based; conditions: rat
Rattus norvegicus [6] = organism: Rattus norvegicus; experiment: Neuroprotective activity was determined in the rat middle cerebral artery occlusion (MCAO) model of focal stroke; format: functional; conditions: read-out: MED
Rattus norvegicus [7] = experiment: In vivo anticonvulsant activity to prevent seizures from maximum electroshock (MES) […] after (i.v.) administration; format: functional; conditions: iv
[8] = Effective dose was determined after intraperitoneal administration in the MES model; format: functional; conditions: Rattus norvegicus, ip
Rattus norvegicus [9] = organism: Rattus norvegicus; experiment: Minimum effective dose (MED) was determined in the rat middle cerebral artery occlusion (MCAO) model of focal stroke […]; format: functional; conditions: read-out: MED
[10] = Inhibition of [3H]-BTX binding to cardiac voltage-gated sodium channel; format: functional, Rattus norvegicus
[11] = molecular target: GABA-A receptor; anion channel; experiment: Anticonvulsant activity against gamma-aminobutyric acid receptor; format: functional
Rattus norvegicus [12] = organism: Rattus norvegicus; experiment: Neuroprotective activity was determined in the rat middle cerebral artery occlusion (MCAO) model of focal stroke using rotarod assay; format: functional; conditions: read-out: MED
Rattus norvegicus [13] = organism: Rattus norvegicus; experiment: Minimum effective dose was determined in the rat middle cerebral artery occlusion (MCAO) model of focal stroke […]; format: functional; conditions: read-out: MED
Gerbillinae = experiment: Neuroprotective activity was determined in the rat middle cerebral artery occlusion (MCAO) model of focal stroke in gerbil; format: functional; conditions: read-out: MED

Structure (SMILES) | IC50 [1] [nM] | IC50 [2] [µM] | ED50 (Rattus norvegicus [4]) [mg/kg] | minimal effective dose (Rattus norvegicus [6]) [mg/kg] | other results
COc1ccc(CCN(C)CCCC(C#N)(c2ccc(OC)c(OC)c2)C(C)C)cc1OC (stereo unspecified) | 2500 | 2.5 |  |  | 
CCC(C)c1ccc(N2CCCN(c3ccc(C(C)CC)cc3)C2=N)cc1 (stereo unspecified) |  | 0.06 |  |  | IC50 [3]: 390 nM
Cc1cccc(C)c1OCC(C)N (stereo unspecified) [MEXILETINE] |  |  | 2 |  | 
CC1CCCC(C)N1CCCNC(=O)C(c1ccccc1)c1ccccc1 (stereo unspecified) | 46 | 5 |  |  | 
NC(=O)N1c2ccccc2C=Cc2ccccc21 [CARBAMAZEPINE] | 131000 | 30 | 3.4 | 2 | TD50 [5]: 27.4 mg/kg
Cc1cccc(C)c1NC(=O)Nc1ccncc1 | 29000 |  |  |  | 
Cc1cccc(C)c1N1C(=O)c2ccc(N)cc2C1=O | 110 |  |  |  | 
COC(=O)[C@@H]1C(=O)C=C(Nc2ccc(Cl)cc2)C[C@H]1C |  |  | 26.2 |  | TD50 [5]: 255 mg/kg
O=C1NC(=O)C(c2ccccc2)(c2ccccc2)N1 [PHENYTOIN] | 40000 | 21 |  | 200 | ED50 (Rattus norvegicus [7]): 10 mg/kg
Clc1ccc(-c2c[nH]nc2N2CCOCC2)cc1 |  |  |  |  | ED50 [8]: 47 mg/kg
OC(COc1ccccc1)CN1CCC(c2ccc(Oc3ccccc3)cc2)CC1 (stereo unspecified) |  | 0.22 |  | 3 | 
Nc1nnc(-c2cccc(Cl)c2Cl)c(N)n1 [LAMOTRIGINE] | 114000 | 21 | 2.2 | 20 | TD50 [5]: 84 mg/kg
CCN(CC)CC(=O)Nc1c(C)cccc1C [LIDOCAINE] | 113000 | 97 | 87 |  | TD50 [5]: 41 mg/kg
CC(Cc1ccccc1)(NC(=O)CN)c1ccccc1 (stereo unspecified) [REMACEMIDE] |  |  |  | 10 | minimal effective dose (Rattus norvegicus [9]): 100 mg/kg
CC1(C)O[C@@H]2[C@@H](CO[C@@]3(COS(N)(=O)=O)OC(C)(C)O[C@@H]23)O1 [TOPIRAMATE] |  |  | 39 |  | 
Nc1ncc(-c2cc(Cl)cc(Cl)c2Cl)c(N)n1 |  | 1.6 |  | 20 | 
Cc1nc(OCCCCCN2CCCCC2)cc(-c2ccc(F)cc2)n1 [ENECADIN] |  | 7.7 |  | 0.5 | IC50 [10]: 1000 nM
CN(C)CCOc1ccccc1-c1nc(-c2ccccc2)no1 |  |  | 2.8 |  | 
Nc1cnc(-c2cc(Cl)cc(Cl)c2Cl)c(N)n1 [ELPETRIGINE] |  |  | 1.13 |  | TD50 [5]: 18.8 mg/kg
CCC1(Cc2ccccc2)CCCNC1=O (stereo unspecified) |  |  |  |  | IC50 [11]: 487 µM
CCCN(c1ccncc1)n1ccc2ccccc21 [BESIPIRDINE] | 5500 | 30 |  |  | 

Structure (SMILES) | IC50 [1] [nM] | IC50 [2] [µM] | ED50 (Rattus norvegicus [4]) [mg/kg] | minimal effective dose (Rattus norvegicus [6]) [mg/kg] | other results
CCOc1ccccc1OCCN1CCC2(CC)c3cccc(O)c3CC1C2(C)C (stereo unspecified) |  |  |  | 2 | 
COc1ccccc1OCCNCC(O)COc1cccc2[nH]c3ccccc3c12 (stereo unspecified) [CARVEDILOL] | 1700 | 0.306 |  |  | 
COc1ccc(CN2CCN(C(c3ccc(F)cc3)c3ccc(F)cc3)CC2)c(OC)c1OC [LOMERIZINE] | 26 |  |  |  | 
Cc1ccc(-c2nc(C)c(CN3CCN(C(c4ccc(F)cc4)c4ccc(F)cc4)CC3)[nH]2)cc1 | 119 | 0.3 |  |  | 
Nc1nccc2c1nnn2Cc1c(F)cccc1F |  |  | 6.3 |  | 
CN(c1nc2ccccc2s1)C1CCN(C[C@H](O)COc2ccc(F)c(F)c2)CC1 [LUBELUZOLE] | 280 |  |  | 0.3 | 
NS(=O)(=O)Cc1noc2ccccc12 [ZONISAMIDE] |  |  |  | 100 | 
NC(=O)NNCc1ccc(Oc2ccc(F)cc2)cc1 |  |  | 4.2 |  | 
N=c1sc2ccccc2n1CCN1CCC(c2ccc(F)cc2)CC1 |  |  | 3.9 | 16 | 
NC1CCc2c(-c3ccccc3)[nH]c3cccc1c23 (stereo unspecified) | 1100 | 4.1 |  |  | 
Cc1cccc(C)c1NC(=O)c1ccc(N)cc1 [AMELTOLIDE] |  |  | 13 |  | 
Cc1cccc(C)c1NC(=O)/C=C1/SCC(=O)N1C | 25000 |  | 2.8 |  | 
Nc1nc2ccc(OC(F)(F)F)cc2s1 [RILUZOLE] |  | 4 |  | 4 | minimal effective dose (Rattus norvegicus [12]): 30 mg/kg
C[C@H](C(N)=O)N1CCC23CCCC[C@@H]2[C@@H]1Cc1ccc(OCc2cccc(F)c2)cc13 (single isomer, unassigned) |  |  | 18.1 |  | 
Fc1ccc(C(c2ccc(F)cc2)N2CCN(C/C=C/c3ccccc3)CC2)cc1 [FLUNARIZINE] | 350 | 0.12 |  |  | 
COC(=O)c1[nH]cc(-c2ccc(Br)cc2)c1N1CCOCC1 |  |  | 2.5 |  | TD50 [5]: > 500 mg/kg
NC(=O)C12NC(Cc3ccccc31)c1ccccc12 (stereo unspecified) |  |  | 8.9 |  | 
CC(NCc1ccc(OCc2cccc(F)c2)cc1)C(N)=O (stereo unspecified) |  |  | 4.1 |  | 
CN1CCN(c2ncc(-c3cc(Cl)cc(Cl)c3Cl)c(N)n2)CC1 [SIPATRIGINE] |  | 5.3 |  | 30 | minimal effective dose (Rattus norvegicus [13]): 60 mg/kg
COc1ccc(/N=C(\N)Nc2ccc3c4c(cccc24)CC3)c2ccccc12 |  | 1.64 |  |  | minimal effective dose (Gerbillinae): 30 mg/kg
Nc1ncnnc1-c1cc(Cl)cc(Cl)c1Cl |  |  | 1.7 |  | TD50 [5]: 40 mg/kg
